Reference: patent publication US12594268B2, “Methods of treating Fabry disease in patients having a mutation in the GLA gene” (Amicus Therapeutics, Inc., priority 2018, dated 2026)
Numbering of substitutions follows the chain as printed.

Key:
Assay type in all cases: cell-based
[1] = target: T1, α-Gal A mutant form W204L (Homo sapiens, UniProt P06280, W204L); experiment: α-Gal A activity in lysates of transfected HEK-293 cells, W204L
T1 construct: expressed in transfected cells; host or cells: HEK-293
T1 sequence (P06280 32-429 W204L): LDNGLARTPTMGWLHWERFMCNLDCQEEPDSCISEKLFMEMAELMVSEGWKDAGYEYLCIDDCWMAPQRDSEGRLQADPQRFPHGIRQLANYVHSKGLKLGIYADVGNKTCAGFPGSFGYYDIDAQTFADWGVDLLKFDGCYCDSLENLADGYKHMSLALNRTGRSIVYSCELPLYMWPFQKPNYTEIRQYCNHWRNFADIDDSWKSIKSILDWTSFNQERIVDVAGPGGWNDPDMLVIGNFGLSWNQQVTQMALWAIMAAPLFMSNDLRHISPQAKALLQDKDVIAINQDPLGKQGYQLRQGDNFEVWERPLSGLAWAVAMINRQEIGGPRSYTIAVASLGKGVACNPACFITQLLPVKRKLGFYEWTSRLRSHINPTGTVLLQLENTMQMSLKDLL
Procedure: (§1) Baseline and 10 μM migalastat α-Gal A activity: Differences in the α-Gal A activity between lysates incubated in the absence and presence of 10 μM migalastat were determined using a one-tailed, Mann Whitney U test; an increase at 10 μM migalastat with a p<0.05 was considered significant.
(§2) 10 μM migalastat α-Gal A activity (% WT)=(α-Gal A activity in mutant transfected cell lysates incubated with 10 μM migalastat÷α-Gal A activity in wild-type transfected cell lysates without migalastat)*100.
(§3) Absolute increase (% WT)=is the 10 μM migalastat α-Gal A activity (% WT) minus the baseline α-Gal A activity (% WT).
(§4) Relative increase is the 10 μM migalastat α-Gal A activity in mutant transfected cell lysates÷baseline α-Gal A activity in mutant transfected cell lysates incubated without migalastat.

[2] = target: T2, α-Gal A mutant form N34H (Homo sapiens, UniProt P06280, N34H); experiment: α-Gal A activity in lysates of transfected HEK-293 cells, N34H
T2 construct: expressed in transfected cells; host or cells: HEK-293
T2 sequence (P06280 32-429 N34H): T1 sequence (P06280 32-429 W204L) with N3H, L173W
Procedure: as §1, §2, §3, §4

[3] = target: T3, α-Gal A mutant form Y88S (Homo sapiens, UniProt P06280, Y88S); experiment: α-Gal A activity in lysates of transfected HEK-293 cells, Y88S; conditions: Y-88S
T3 construct: expressed in transfected cells; host or cells: HEK-293
T3 sequence (P06280 32-429 Y88S): T1 sequence (P06280 32-429 W204L) with Y57S, L173W
Procedure: as §1, §2, §3, §4

[4] = target: T4, α-Gal A mutant form T194A (Homo sapiens, UniProt P06280, T194A); experiment: α-Gal A activity in lysates of transfected HEK-293 cells, T194A
T4 construct: expressed in transfected cells; host or cells: HEK-293
T4 sequence (P06280 32-429 T194A): T1 sequence (P06280 32-429 W204L) with T163A, L173W
Procedure: as §1, §2, §3, §4

[5] = target: T5, α-Gal A mutant form N320H (Homo sapiens, UniProt P06280, N320H); experiment: α-Gal A activity in lysates of transfected HEK-293 cells, N320H
T5 construct: expressed in transfected cells; host or cells: HEK-293
T5 sequence (P06280 32-429 N320H): T1 sequence (P06280 32-429 W204L) with L173W, N289H
Procedure: as §1, §2, §3, §4

[6] = 10 μM migalastat minus baseline
[7] = 10 μM migalastat ÷ baseline activity
[8] = HEK-293 lysates, 10 μM migalastat, 5 days, mean ± SEM
[9] = HEK-293 lysates, 10 nM migalastat as printed, 5 days, mean ± SEM

SMILES: OC[C@H]1NC[C@H](O)[C@@H](O)[C@H]1O [migalastat, (2R,3S,4R,5S)-2-(hydroxymethyl) piperdine-3,4,5-triol]
- Absolute increase (% WT) [1, 6]: 47.4 % WT
- Relative increase [1, 7]: 2.02
- 10 μM migalastat α-Gal A activity [1, 8]: 32649 ± 3037 nmol/mg/h
- 10 μM migalastat α-Gal A activity (% WT) [1, 8]: 84.3 ± 5.9 % WT
- Absolute increase (% WT) ([2]; 10 μM migalastat minus baseline (baseline BLD)): 3.6 % WT
- 10 μM migalastat α-Gal A activity (% WT) [2, 8]: 3.6 ± 0.2 % WT
- 10 μM migalastat α-Gal A activity ([2]; HEK-293 lysates, 10 μM migalastat, 5 days, mean ± SEM, baseline BLD): 1414 ± 100 nmol/mg/h
- Absolute increase (% WT) [3, 6]: 10.3 % WT
- Relative increase [3, 7]: 3.67
- 10 nM migalastat α-Gal A activity [3, 9]: 5542 ± 376 nmol/mg/h
- 10 μM migalastat α-Gal A activity (% WT) [3, 8]: 14.1 ± 1.3 % WT
- Absolute increase (% WT) [4, 6]: 19.7 % WT
- Relative increase [4, 7]: 2.75
- 10 nM migalastat α-Gal A activity [4, 9]: 10315 ± 459 nmol/mg/h
- 10 μM migalastat α-Gal A activity (% WT) [4, 8]: 30.5 ± 2.0 % WT
- Absolute increase (% WT) [5, 6]: 32.2 % WT
- Relative increase [5, 7]: 2.59
- 10 μM migalastat α-Gal A activity [5, 8]: 22149 ± 1050 nmol/mg/h
- 10 μM migalastat α-Gal A activity (% WT) [5, 8]: 52.9 ± 3.1 % WT
